The record followed here is publication PMC11648230, “Structure–function analysis of tRNA t^6A-catalysis, assembly, and thermostability of Aquifex aeolicus TsaD2B2 tetramer in complex with TsaE” (The Journal of Biological Chemistry, 2024).

The target in this assay is T1, A. aeolicus TsaD2B2 (TsaD-TsaB) (Aquifex aeolicus, UniProt O66986).
T1 construct: recombinant from E. coli; co-expressed (pET21a-BC10_DZop), C-terminal 6His on TsaB; tetramer; Cys10 of TsaD oxidized (CSO10) in crystals; with tRNA threonylcarbamoyladenosine biosynthesis protein TsaB
Kind of assay: LC-MS of tRNA t6A formation. The class given is biochemical. The following applies: isolated TC-AMP 30 uM, EDTA-dialyzed TsaD2B2 plus MgCl2, FeCl2 or ZnCl2 100 uM, 60 uM tRNA-Lys(UUU), no TsaE.

T1 sequence (O66494 entry or part of it): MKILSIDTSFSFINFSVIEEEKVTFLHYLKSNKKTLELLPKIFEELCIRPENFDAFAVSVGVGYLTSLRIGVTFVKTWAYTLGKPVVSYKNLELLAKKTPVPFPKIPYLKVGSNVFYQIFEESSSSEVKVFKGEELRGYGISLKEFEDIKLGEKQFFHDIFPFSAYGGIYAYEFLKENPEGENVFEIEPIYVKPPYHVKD
T1 sequence (O66986 whole entry): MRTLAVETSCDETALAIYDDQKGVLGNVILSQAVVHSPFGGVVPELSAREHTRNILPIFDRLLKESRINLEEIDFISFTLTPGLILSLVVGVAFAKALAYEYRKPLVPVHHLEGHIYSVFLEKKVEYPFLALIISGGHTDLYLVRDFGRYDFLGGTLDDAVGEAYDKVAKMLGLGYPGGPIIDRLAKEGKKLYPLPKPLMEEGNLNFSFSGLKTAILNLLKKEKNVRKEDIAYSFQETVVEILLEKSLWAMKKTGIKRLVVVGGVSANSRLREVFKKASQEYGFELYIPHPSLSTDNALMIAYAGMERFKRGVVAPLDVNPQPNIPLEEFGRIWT

For `C[C@@H](O)[C@H](NC(=O)OP(=O)(O)OC[C@H]1O[C@@H](n2cnc3c(N)ncnc32)[C@H](O)[C@@H]1O)C(=O)O` [TC-AMP], the “LC-MS of tRNA t6A formation” value is “we only used EDTA-dialyzed TsaD2B2, HPLC-purified TC-AMP, and SEC-purified IVT tRNA^LysUUU”.
